Columns and labels:
[1] = preliminary physicochemical stability study in recommended packaging; details: 3 months
Method: The double packed LDPE bag was then placed inside an aluminum foil bag with appropriate amount of desiccant between the LDPE bag and the aluminum foil bag. The aluminum bag package was then placed in a High-Density PolyEthylene (HDPE) container and stored at temperature below 25° C.

[2] = Dynamic Vapor Sorption (DVS) water-solid interaction; assay type: physicochemical
Method: Dynamic Vapor Sorption (DVS) The sample was placed into the DVS sample pan and dried under a stream of dry nitrogen at 25° C. with 0% RH. The moisture was gradually introduced into the system with a 10% RH increment up to 90% RH and the humidity was then decreased in a similar trend for desorption phase. The sorption and desorption data were collected with equilibration set to dm/dt 0.004%/min for 5 min/step. The minimum and maximum time for each step were set to 10 and 360 min. Two sorption/desorption cycles were performed.

[3] = accelerated condition 40° C./75% RH
[4] = long term storage condition 25° C./60% RH

- solid form [1, 3]: remained as amorphous
- water content change [1, 3]: not increased
- solid form [1, 4]: remained as amorphous
- water content change [1, 4]: not increased
- hygroscopicity (DVS result) ([2]; DVS isotherm, FIG. 4): hygroscopic material
- moisture uptake ([2]; DVS, humidity changing from 0% RH to 90% RH, 25° C.): approximately 8.9%
Structure (SMILES): CC[C@H](Nc1ncnc2nc[nH]c12)c1nc2cccc(F)c2c(=O)n1-c1ccccc1 [amorphous idelalisib, (S)-2-(1-(9H-purin-6-ylamino)propyl)-5-fluoro-3-phenylquinazolin-4(3H)-one]
